# How the values were obtained:
# [1] = Inhibition of porcine alpha-amylase using starch as substrate preincubated for 10 mins followed by substrate addition and measured after 10 mins by microplate reader analysis; set-up: species or system Sus scrofa
# [2] = Inhibition of yeast alpha-glucosidase using p-nitrophenyl-alpha-D-glucopyranoside as substrate preincubated for 5 mins followed by substrate addition measured after 5 mins by microplate reader analysis; set-up: species or system Saccharomyces cerevisiae
# [3] = Inhibition of Aspergillus niger maltase preincubated for 10 mins followed by substrate addition
# [4] = Inhibition of rat intestinal gluco-amylase preincubated for 10 mins followed by substrate addition
# [5] = Inhibition of rat intestinal isomaltase preincubated for 10 mins followed by substrate addition
# [6] = Inhibition of rat intestinal trehalase preincubated for 10 mins followed by substrate addition
# [7] = Inhibition of rat intestinal lactase preincubated for 10 mins followed by substrate addition
# [8] = Inhibition of rat intestinal sucrase preincubated for 10 mins followed by substrate addition
# [9] = Inhibition of rat intestinal maltase preincubated for 10 mins followed by substrate addition
# [10] = Inhibition of baker's yeast sucrase preincubated for 10 mins followed by substrate addition; set-up: species or system Saccharomyces cerevisiae
# [11] = Inhibition of mammalian alpha-amylase using starch as substrate; set-up: species or system Mammalia
smiles,measurement,setting,value
C=C1CC[C@@H]2[C@](C)(CO)[C@H](O)CC[C@@]2(C)[C@@H]1C/C=C1/C(=O)OC[C@H]1O [ANDROGRAPHOLIDE],IC50,[1],11 mg/mL
same,IC50,[2],11 mg/mL
CC1(C)CCC[C@]2(C)c3cc(O)c(O)cc3C(=O)C[C@@H]12,IC50,[3],14 µM
same,IC50,[4],1.6 µM
same,IC50,[5],0.85 µM
same,IC50,[6],30 µM
same,IC50,[7],20 µM
same,IC50,[8],6.8 µM
same,IC50,[9],12 µM
same,IC50,[10],11 µM
CC(C)=CCC/C(C)=C/C=O [CITRAL],IC50,[11],120 µM
